How the values were obtained:
[1] = tested on: 5/2 cells; experiment: Growth-supporting activity on 5/2 cells in serum-free ITLB medium; type: cell-based, human
Protocol: The assay was done in 96-well microtiter plates in a final volume of 200 ul/well. The cells were cultured for 72 hours and cell growth determined by [^3 H] thymidine (0.8 μCi/well)labeling for the last 16 hours. Retinoids were added at the indicated concentrations at the initiation of culture and every 24 hours thereafter.
5/2 cells were grown in the absence of retinol in a medium containing the basic RPMI 1640 amino acid/salt mixture, insulin (5 μg/ml), transferrin (5 μg/ml), albumin (0.1%) and linoleic acid (10^-6 M) (ITLB). […] The dose-response curve shown in FIG. 26 indicates an effective concentration of 10^-7 M.

[2] = tested on: 5/2 lymphoblastoid cells; experiment: Kinetics of biosynthesis of 13,14DHR and 14HRR from 3H retinol in 5/2 lymphoblastoid cells; type: in vitro ADME, human
Protocol: FIG. 24. Kinetics of biosynthesis of 14HRR in lymphoblastoid cells. 50 ml ITLB 600,000 5/2 cells/ml were incubated with 20 μCi of ^3 H retinol in serum-free ITLB medium. Cell pellets corresponding to 10 ml of culture were delipidated at 20 minute intervals and the corresponding lipid fraction separated on an analytical C18 reversed-phase column (see FIG. 20). Radioactive peaks were identified by coelution with cold reference retinoids.
The kinetics of biosynthesis of 13,14DHR and 14HRR were determined in 5/2 lymphoblastoid cells. These cells were cultured in the presence of ^3 H retinol for different time periods, and the cell-associated retinoids extracted as referenced above. They were then chromatographed on an analytical C18 column as described in FIG. 20. The sizes of peaks emerging at 16.8 minutes, representing 13,14DHR, and 18.5 minutes, representing 14HRR, were measured and plotted in the bar diagram of FIG. 24.

[3] = tested on: lymphoblastoid 5/2 cells; experiment: Conversion of 13,14DHR to 14HRR by lymphoblastoid cells; type: in vitro ADME, human; settings: 10^-6 M, 1 and 2 hours, ITLB medium
Protocol: FIGS. 25A through 25D. 13,14DHR can be converted to 14HRR by lymphoblastoid cells. 200,000 5/2 cells/ml were incubated with or without 10^-6 M 13,14DHR added in serum-free ITLB medium. After 1 and 2 hours, cells pellets corresponding to 10 ml of culture were delipidated and the corresponding lipid fractions separated on an analytical C18 reversed-phase column according to FIG. 20. Peaks were identified according to their retention times and their UV absorption patterns.
Lymphoblastoid 5/2 cells devoid of retinol were cultured in the presence or absence of 10^-6 M 13,14DHR for 1 and 2 hours in ITLB medium. The retinoids extracted from the cell pellets were separated by HPLC according to FIG. 20. […] There was no 14HRR measurable in control cultures.

[4] = tested on: T cells; experiment: T cell activation and proliferation, retinol cofactor requirement; type: cell-based, murine
Protocol: They were seeded into 96-well flat-bottom plates at varying cellular densities in a final volume of 100 μl. In control experiments, cells were cultured in medium containing 10% FCS or 3% human serum and 5×10^-5 M 2ME. […] Cultures were carried out in duplicate. Plates were incubated at 37° C. in a humidified 5% CO2 atmosphere. Cellular proliferation was determined by [^3 H] thymidine uptake (0.5 uCi/well; New England Nuclear, Boston, Mass.) after the incubation times indicated for each experiment with a 4 hour labeling pulse. Cells were harvested onto glass filter and [^3 H]TdR incorporation was determined by liquid scintillation counting. The data presented are the means of duplicate or six replicate cultures. The restriction to duplicate measurements was necessary to conserve scarce 14HRR. […] Each experiment was repeated at least twice.

[5] = tested on: activated human thymocytes; settings: cited from earlier work
[6] = tested on: CD4^+ T lymphocytes; experiment: Proliferation of anti-CD3 activated CD4+ T lymphocytes; type: cell-based, BALB/c mouse
From the text: (§1) Growth curves of lymph node T cells depleted of antigen-presenting cells (FIG. 17A) with and without 10^-6 M retinol at 2×10^5 and 5×10^4 cells/well. (FIG. 17B) Dose-responses elicited by different retinoids in cultures of lymph node T cells depleted of antigen-presenting cells. Also shown are the growth curves of CD4^+ (FIG. 17C) and CD8^+ T lymphocytes (FIG. 17D) in the presence of either retinol, 14HRR, human serum or in their absence.
(§2) T lymphocytes, purified as described, 5×10^4 /well, were activated with immobilized anti-CD3 antibody in ITLB medium. The indicated amounts of retinoids or human serum were added at initiation of cultures. […] 14HRR was added every 12 hours. DNA synthesis was measured by a 4 hour pulse with tritiated thymidine. SDs were ≤17%.
(§3) Mature T cells were obtained from pooled intestinal, axillary, inguinal and submandibular lymph nodes of 4 to 10-week-old BALB/c mice. To fractionate cells into CD4 and CD8 subsets and at the same time remove APC, a combination of adherence and complement lysis was used as follows:
(§4) The cell suspension in a volume of 2 ml was applied to a nylon wool column (40) (0.6 g of washed nylon fibers in the barrel of a 10 ml syringe) and incubated at 37° C. for 40 min. […] The success of the enrichment procedures was monitored cytofluorimetrically using FITC-conjugated anti-CD8 and PE-conjugated anti-CD4. […]

[7] = tested on: lymph node T cells; experiment: Proliferation of anti-CD3 activated lymph node T cells; type: cell-based, BALB/c mouse
From the text: as §1, §2, §3, §4
Cells were cultured in serum-free medium, referred to as ITLB, containing RPMI 1640 supplemented with 8×10^-7 M insulin (5 μg/ml), 7×10^-8 M transferrin (5 μg/ml), 2×10^-6 M linoleic acid, 2×10^-6 M delipidated BSA (0.12 mg/ml), 2 mM L-glutamine, 1 mM sodium pyruvate and antibiotics. […] The optimal concentration for stimulation of T cells was determined for each batch of anti-CD3 mAb and Con A. The optimal range of Con A was particularly narrow in serum-free medium (0.5-0.2 μg/ml) and varied with the cell density used. […] Cellular proliferation was determined by [^3 H] thymidine uptake (0.5 uCi/well; New England Nuclear, Boston, Mass.) after the incubation times indicated for each experiment with a 4 hour labeling pulse. […]

[8] = tested on: thymocytes; experiment: Proliferation of anti-CD3 activated thymocytes in serum-free ITLB medium; type: cell-based, BALB/c mouse
Protocol: FIG. 14A: Purified BALB/c thymocytes were activated with immobilized anti-CD3e antibody and cultivated for four days in ITLB medium with or without retinol (3×10^-6 M), 14HRR (6×10^-7 M) (fresh 14HRR was added every 12 hours), human serum (3%) or FCS (10%) at the cellular densities shown. Proliferation was assayed by tritiated thymidine incorporation into cellular DNA.
FIG. 14B: BALB/c thymocytes (10^6 /ml) were added to microtiter plates coated with titrated amounts of anti-CD3e antibody with […] retinol or without, as indicated. Proliferation was measured in hexaduplicate wells on day 3 by ^3 H thymidine incorporation assay.
Purified thymocytes (5×10^5 cells/well) were stimulated by TCR crosslinking with immobilized anti-CD3e antibody (FIG. 15A) or 0.4 μg/ml Con A (FIG. 15B) in serum-free ITLB medium. The indicated amounts of retinoids were added either once at the beginning of the experiment (marked as "1×") or every 12 hours thereafter (marked as "6×"). DNA synthesis was measured after 72 hours by tritiated thymidine uptake as described.
Purified thymocytes (10^5 cells/well) were activated with anti-CD3 antibody in ITLB medium with or without retinol (3×10^-6 M), 14HRR (6×10^-7, added every 12 hours or human serum (3%)). DNA synthesis was measured daily by a 4 hour pulse of tritiated thymidine.
Thymocytes (5×10^4 /well) were activated by immobilized anti-CD3 mAb in medium ITLB. Retinol (2×10^-6 M) was added at initiation of culture, or delayed by 12 hours and 24 hours, respectively, or omitted altogether. ^3 H thymidine pulses of 4 hours were used to measure DNA synthesis of hexaduplicate wells.
Thymuses of 3 to 6-week-old BALB/c mice were teased in serum-free RPMI medium supplemented with 1% BSA, 10^-6 M linoleic acid and antibiotics. Depletion of accessory cells was achieved by two cycles of complement-dependent lysis with a mixture of anti-IA^d (5 μg/ml) and anti-IE^d (1:500 diluted ascites fluid). Briefly, cells were incubated on ice for 30 minutes with Ia antibodies, spun down, resuspended in 1:40 diluted rabbit complement, and incubated at 37° C. for 45 minutes. Incubations and two subsequent washes were carried out with RPMI medium containing 1% BSA. Cell viability was evaluated by trypan blue dye exclusion. To determine the extent of depletion of accessory cells, samples were stained with FITC-conjugated anti-Fc receptor antibody and analyzed by flow cytometry on a FACScan instrument (Becton Dickinson).
Cells were cultured in serum-free medium, referred to as ITLB, containing RPMI 1640 supplemented with 8×10^-7 M insulin (5 μg/ml), 7×10^-8 M transferrin (5 μg/ml), 2×10^-6 M linoleic acid, 2×10^-6 M delipidated BSA (0.12 mg/ml), 2 mM L-glutamine, 1 mM sodium pyruvate and antibiotics. They were seeded into 96-well flat-bottom plates at varying cellular densities in a final volume of 100 μl. In control experiments, cells were cultured in medium containing 10% FCS or 3% human serum and 5×10^-5 M 2ME. T cells and thymocytes were activated with immobilized, purified anti-mAb CD3e or by the addition of Con A in the presence or absence of different concentrations of retinoids. Unless indicated otherwise, retinoids were replenished every 12 hours to maintain a reasonably constant concentration of these labile compounds in culture. […] Cultures were carried out in duplicate. Plates were incubated at 37° C. in a humidified 5% CO2 atmosphere. Cellular proliferation was determined by [^3 H] thymidine uptake (0.5 uCi/well; New England Nuclear, Boston, Mass.) after the incubation times indicated for each experiment with a 4 hour labeling pulse.

[9] = tested on: lymphoblastoid cells (LCL); settings: cited from earlier work
[10] = tested on: CD8^+ T lymphocytes; experiment: Proliferation of anti-CD3 plus IL-2 activated CD8+ T lymphocytes; type: cell-based, BALB/c mouse
From the text: as §1, §2, §3, §4

[11] = tested on: B lymphocytes; settings: previous analyses with B lymphocytes (ref. 33); cited from earlier work

SMILES | restoration of proliferation in absence of retinol [1] | order of metabolite production [2] | conversion to 14HRR [3] | ability to substitute for retinol in T cell activation (words) [4] | support of growth of activated human thymocytes [5] | response of CD4+ subset to anti-CD3 [6] | stimulation of lymph node T cells [7] | effect of delayed addition ([8]; addition delayed by 24 hours) | effectiveness relative to retinol ([8]; anti-CD3, 14HRR at 12 hour intervals) | optimally effective dose ([8]; given once in a 3-day culture) [µM] | optimally effective dose ([8]; provided at 12 hour intervals) [µM] | support of growth of LCL in serum-free medium [9] | response of CD8+ subset to anti-CD3 plus IL-2 [10] | active concentration [11] [nM]
CC1=C(/C=C/C(C)=C/C=C/C(C)(O)C(O)CO)C(C)(C)CCC1 (stereo not drawn) [13,14DHR, 13,14-dihydroxy-retinol] | proliferation was restored as well | production of 13,14DHR precedes that of 14HRR | produced 14HRR | can effectively substitute for retinol |  |  |  |  |  |  |  |  |  | 
CC1=C(/C=C/C(C)=C/C=C/C(C)=C/C=O)C(C)(C)CCC1 [all-trans retinal] |  |  |  | can substitute for retinal | The same is true for activated human thymocytes | responded to the activating signal | dependent on the presence of retinal | complete failure of activation | equally effective as all-trans retinol | 2 | 0.2 | support the growth of LCL in serum-free medium | responded to the activating signal | 200
